Assay results from patent US20250092065A1, “2-(INDAZOL-5-YL)-6-(PIPERIDIN-4-YL)-1,7-NAPHTHYRIDINE DERIVATIVES AND RELATED COMPOUNDS AS MODULATORS FOR SPLICING NUCLEIC ACIDS AND FOR THE TREATMENT OF PROLIFERATIVE DISEASES” (REMIX THERAPEUTICS INC., priority 2022, published 2025).
Where a name gives a salt, the structure may show the parent alone.

How the values were obtained:
Target C [1] = test: RT-qPCR canonical junction panel assay, Target C mRNA; format: cell-based; details: Table 4, read-out: Target C IC50 (decrease in CJ mRNA levels)
In short: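 IC50 is the concentration giving 50% CJ decrease, from a 4-parameter logistic fit of percent response; response derived from ΔΔCt against housekeeper and DMSO over a fixed ΔCt window, with canonical exon-junction qPCR in compound-treated K562 or A673 cells.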

HTT = test: HiBiT protein abundance assay, HTT (K562 HiBiT knock-in); format: cell-based, human; details: HiBiT knock-in K562 cells, 24 hours, top dose 10 μM
In short: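 Tagged-protein levels were measured as HiBiT/LgBiT luminescence in lysed K562 knock-in cells exposed to serially diluted compound (up to 10 μM final) for 24 hours. A four-parameter logistic regression of control-normalized signal yielded the IC50.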

Target C [2] = test: HiBiT protein abundance assay, Target C (K562 HiBiT knock-in); format: cell-based, human; details: HiBiT knock-in K562 cells, 24 hours, top dose 10 μM
In short: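 K562 HiBiT knock-in cells (10000/well) were treated 24 h at 37° C with a 10-point 3-fold dilution series (top 10 μM final, ≤0.25% DMSO). HiBiT luminescence was read after lytic LgBiT detection. Percent response used unmodified K562 and DMSO-treated knock-in controls, and IC50 came from a four-parameter fit at 50% of untreated.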

Molecule `Cc1c(O)c(-c2nc(-c3nnc[nH]3)c3cc(N4CCNCC4)ccc3n2)cc2cn(C)nc12` [Compound 522, 2,7-dimethyl-5-[6-(piperazin-1-yl)-4-(4H-1,2,4-triazol-3-yl)quinazolin-2-yl]indazol-6-ol; bis(trifluoroacetic acid)] has an IC50 (Target C [1]) greater than 10 µM, an IC50 (HTT) of 1 to 10 µM and an IC50 (Target C [2]) of 1 to 10 µM.

`Cc1c(O)c(-c2nc(C(N)=O)c3cc(N4CCNCC4)ccc3n2)cc2cn(C)nc12` [Compound 523, 2-(6-hydroxy-2,7-dimethylindazol-5-yl)-6-(piperazin-1-yl) quinazoline-4-carboxamide] gave an IC50 (Target C [1]) of 1 to 10 µM, an IC50 (HTT) of 0.1 to 1 µM and an IC50 (Target C [2]) of 1 to 10 µM.

In the case of `Cc1c(O)c(-c2nc(C(=O)O)c3cc(N4CCNCC4)ccc3n2)cc2cn(C)nc12` [Compound 524, 2-(6-hydroxy-2,7-dimethylindazol-5-yl)-6-(piperazin-1-yl) quinazoline-4-carboxylic acid], the IC50 (Target C [1]) is reported as greater than 10 µM, the IC50 (HTT) is reported as greater than 10 µM and the IC50 (Target C [2]) is reported as greater than 10 µM.

Molecule `Cc1c(O)c(-c2ncc3cc(N4C[C@@H](C)N[C@@H](C)C4)ccc3n2)cc2cn(C)nc12` [Compound 525, 5-{6-[(3R,5S)-3,5-dimethylpiperazin-1-yl]quinazolin-2-yl}-2,7-dimethylindazol-6-ol] has an IC50 (Target C [1]) of 1 to 10 µM, an IC50 (HTT) of 0.1 to 1 µM and an IC50 (Target C [2]) of 0.1 to 1 µM.

Work on `Cc1c(O)c(-c2ncc3nc(N4C[C@@H](C)N[C@@H](C)C4)ccc3n2)cc2cn(C)nc12` [Compound 526, 5-{6-[(3R,5S)-3,5-dimethylpiperazin-1-yl]pyrido[3,2-d]pyrimidin-2-yl}-2,7-dimethylindazol-6-ol] yielded an IC50 (Target C [1]) of 1 to 10 µM, an IC50 (HTT) of 0.1 to 1 µM and an IC50 (Target C [2]) of 0.1 to 1 µM.

`CNC(=O)c1nc(-c2cc3cn(C)nc3c(F)c2O)nc2ccc(N3C[C@@H](C)N[C@@H](C)C3)cc12` [Compound 527, 6-[(3R,5S)-3,5-dimethylpiperazin-1-yl]-2-(7-fluoro-6-hydroxy-2-methylindazol-5-yl)-N-methylquinazoline-4-carboxamide] showed an IC50 (Target C [1]) of 0.1 to 1 µM, an IC50 (HTT) of less than 0.1 µM and an IC50 (Target C [2]) of 0.1 to 1 µM.

In the case of `CNC(=O)c1nc(-c2cc3cn(C)nc3c(F)c2O)nc2ccc(N3CCC(N(C)C)CC3)cc12` [Compound 528, 6-[4-(dimethylamino)piperidin-1-yl]-2-(7-fluoro-6-hydroxy-2-methylindazol-5-yl)-N-methylquinazoline-4-carboxamide], the IC50 (Target C [1]) is reported as 1 to 10 µM, the IC50 (HTT) is reported as 0.1 to 1 µM and the IC50 (Target C [2]) is reported as 0.1 to 1 µM.

`CNC(=O)c1nc(-c2cc3cn(C)nc3c(F)c2O)nc2ccc(N3CCN[C@@H](C)C3)cc12` [Compound 529, 2-(7-fluoro-6-hydroxy-2-methylindazol-5-yl)-N-methyl-6-[(3S)-3-methylpiperazin-1-yl]quinazoline-4-carboxamide] was tested, and the IC50 (Target C [1]) was 1 to 10 µM, the IC50 (HTT) was less than 0.1 µM and the IC50 (Target C [2]) was 0.1 to 1 µM.

For `CNC(=O)c1nc(-c2cc3cn(C)nc3cc2O)nc2ccc(N3CCN[C@@H](C)C3)cc12` [Compound 530, 2-(6-hydroxy-2-methylindazol-5-yl)-N-methyl-6-[(3S)-3-methylpiperazin-1-yl]quinazoline-4-carboxamide], the IC50 (Target C [1]) was greater than 10 µM, the IC50 (HTT) was 0.1 to 1 µM and the IC50 (Target C [2]) was 0.1 to 1 µM.

For `CNC(=O)c1nc(-c2cc3cn(C)nc3cc2O)nc2ccc(N3C[C@@H](C)N[C@@H](C)C3)cc12` [Compound 531, 6-[(3R,5S)-3,5-dimethylpiperazin-1-yl]-2-(6-hydroxy-2-methylindazol-5-yl)-N-methylquinazoline-4-carboxamide], the IC50 (Target C [1]) was greater than 10 µM, the IC50 (HTT) was 0.1 to 1 µM and the IC50 (Target C [2]) was 1 to 10 µM.

`CNC(=O)c1nc(-c2cc3cn(C)nc3c(C)c2O)nc2ccc(N3CCNC4(CC4)C3)cc12` [Compound 532, 6-{4,7-diazaspiro[2.5]octan-7-yl}-2-(6-hydroxy-2,7-dimethylindazol-5-yl)-N-methylquinazoline-4-carboxamide] showed an IC50 (Target C [1]) greater than 10 µM, an IC50 (HTT) of 0.1 to 1 µM and an IC50 (Target C [2]) of 0.1 to 1 µM.

Work on `CNC(=O)c1nc(-c2cc3cn(C)nc3c(C)c2O)nc2ccc(N3CCNCC3)nc12` [Compound 533, 2-(6-hydroxy-2,7-dimethylindazol-5-yl)-N-methyl-6-(piperazin-1-yl)pyrido[3,2-d]pyrimidine-4-carboxamide] yielded an IC50 (Target C [1]) greater than 10 µM, an IC50 (HTT) of 1 to 10 µM and an IC50 (Target C [2]) of 1 to 10 µM.

For `CNC(=O)c1nc(-c2cc3cn(C)nc3c(C)c2O)nc2ccc(N3C[C@@H](C)N[C@@H](C)C3)nc12` [Compound 534, 6-[(3R,5S)-3,5-dimethylpiperazin-1-yl]-2-(6-hydroxy-2,7-dimethylindazol-5-yl)-N-methylpyrido[3,2-d]pyrimidine-4-carboxamide], the IC50 (Target C [1]) was greater than 10 µM, the IC50 (HTT) was 1 to 10 µM and the IC50 (Target C [2]) was 1 to 10 µM.

With `CCNC(=O)c1nc(-c2cc3cn(C)nc3c(C)c2O)nc2ccc(N3C[C@@H](C)N[C@@H](C)C3)cc12` [Compound 535, 6-[(3R,5S)-3,5-dimethylpiperazin-1-yl]-N-ethyl-2-(6-hydroxy-2,7-dimethylindazol-5-yl)quinazoline-4-carboxamide] the IC50 (Target C [1]) was 1 to 10 µM, the IC50 (HTT) was less than 0.1 µM and the IC50 (Target C [2]) was 0.1 to 1 µM.

With `CNC(=O)c1nc(-c2cc3cn(C)nc3c(C)c2O)nc2ccc(N3CC[C@@H](NC)C3)cc12` [Compound 536, 2-(6-hydroxy-2,7-dimethylindazol-5-yl)-N-methyl-6-[(3R)-3-(methylamino)pyrrolidin-1-yl]quinazoline-4-carboxamide] the IC50 (Target C [1]) was less than 0.1 µM, the IC50 (HTT) was less than 0.1 µM and the IC50 (Target C [2]) was less than 0.1 µM.

For `CNC(=O)c1nc(-c2cc3cn(C)nc3c(C)c2O)nc2ccc(N3CC[C@H](NC)C3)cc12` [Compound 537, 2-(6-hydroxy-2,7-dimethylindazol-5-yl)-N-methyl-6-[(3S)-3-(methylamino)pyrrolidin-1-yl]quinazoline-4-carboxamide], the IC50 (Target C [1]) was 0.1 to 1 µM, the IC50 (HTT) was less than 0.1 µM and the IC50 (Target C [2]) was less than 0.1 µM.

`Cc1c(O)c(-c2nc(-c3c[nH]nn3)c3cc(N4CCNCC4)ccc3n2)cc2cn(C)nc12` [Compound 538, 2,7-dimethyl-5-[6-(piperazin-1-yl)-4-(1H-1,2,3-triazol-4-yl)quinazolin-2-yl]indazol-6-ol hydrochloride] gave an IC50 (Target C [1]) of 1 to 10 µM, an IC50 (HTT) of 1 to 10 µM and an IC50 (Target C [2]) of 1 to 10 µM.

Work on `Cc1c(O)c(-c2nc(C(=O)NC(C)C)c3cc(N4C[C@@H](C)N[C@@H](C)C4)ccc3n2)cc2cn(C)nc12` [Compound 539, 6-[(3R,5S)-3,5-dimethylpiperazin-1-yl]-2-(6-hydroxy-2,7-dimethylindazol-5-yl)-N-isopropylquinazoline-4-carboxamide] yielded an IC50 (Target C [1]) of 0.1 to 1 µM, an IC50 (HTT) of less than 0.1 µM and an IC50 (Target C [2]) of less than 0.1 µM.

`Cc1c(O)c(-c2nc(C(=O)NC3CCC3)c3cc(N4C[C@@H](C)N[C@@H](C)C4)ccc3n2)cc2cn(C)nc12` [Compound 540] showed an IC50 (Target C [1]) greater than 10 µM, an IC50 (HTT) of 0.1 to 1 µM and an IC50 (Target C [2]) of 0.1 to 1 µM.

In the case of `Cc1c(O)c(-c2nc(-c3nn[nH]n3)c3cc(N4CCNCC4)ccc3n2)cc2cn(C)nc12` [Compound 541, 2,7-dimethyl-5-[6-(piperazin-1-yl)-4-(2H-1,2,3,4-tetrazol-5-yl)quinazolin-2-yl]indazol-6-ol], the IC50 (Target C [1]) is reported as 1 to 10 µM, the IC50 (HTT) is reported as greater than 10 µM and the IC50 (Target C [2]) is reported as greater than 10 µM.

In the case of `C[C@@H]1CN(c2ccc3nc(-c4cc5cn(C)nc5c(F)c4O)nc(C4CC4)c3c2)C[C@H](C)N1` [Compound 542, 5-{4-cyclopropyl-6-[(3R,5S)-3,5-dimethylpiperazin-1-yl]quinazolin-2-yl}-7-fluoro-2-methylindazol-6-ol], the IC50 (Target C [1]) is reported as greater than 10 µM, the IC50 (HTT) is reported as 1 to 10 µM and the IC50 (Target C [2]) is reported as 0.1 to 1 µM.

Molecule `CN[C@@H]1CCN(c2ccc3nc(-c4cc5cn(C)nc5c(F)c4O)nc(C4CC4)c3c2)C1` [Compound 543, 5-{4-cyclopropyl-6-[(3R)-3-(methylamino)pyrrolidin-1-yl]quinazolin-2-yl}-7-fluoro-2-methylindazol-6-ol] has an IC50 (Target C [1]) of 0.1 to 1 µM, an IC50 (HTT) of less than 0.1 µM and an IC50 (Target C [2]) of 0.1 to 1 µM.

In the case of `Cc1cn2cc(-c3ccc4cc(N5C[C@@H](C)N[C@@H](C)C5)cc(F)c4n3)cc(F)c2n1` [Compound 544, 6-[(3R,5S)-3,5-dimethylpiperazin-1-yl]-8-fluoro-2-{8-fluoro-2-methylimidazo[1,2-a]pyridin-6-yl}quinoline], the IC50 (Target C [1]) is reported as 1 to 10 µM, the IC50 (HTT) is reported as 0.1 to 1 µM and the IC50 (Target C [2]) is reported as 0.1 to 1 µM.

For `CNC(=O)c1nc(-c2cc3cn(C)nc3c(C)c2O)nc2ccc(N3C[C@H](C)N[C@@H](C)C3)cc12` [Compound 652, 6-[(3S,5S)-3,5-dimethylpiperazin-1-yl]-2-(6-hydroxy-2,7-dimethylindazol-5-yl)-N-methylquinazoline-4-carboxamide], the IC50 (Target C [1]) was greater than 10 µM, the IC50 (HTT) was less than 0.1 µM and the IC50 (Target C [2]) was 0.1 to 1 µM.

Molecule `Cc1c(O)c(-c2ncc3cc(N4C[C@H](C)N[C@@H](C)C4)ccc3n2)cc2cn(C)nc12` [Compound 660, 5-{6-[(3S,5S)-3,5-dimethylpiperazin-1-yl]quinazolin-2-yl}-2,7-dimethylindazol-6-ol] has an IC50 (Target C [1]) of 1 to 10 µM, an IC50 (HTT) of 0.1 to 1 µM and an IC50 (Target C [2]) of 0.1 to 1 µM.

`CNC(=O)c1nc(-c2cc3cn(C)nc3c(C)c2O)nc2ccc(N3CCC(N4CCC4)CC3)cc12` [Compound 706] was tested, and the IC50 (Target C [1]) was greater than 10 µM, the IC50 (HTT) was 0.1 to 1 µM and the IC50 (Target C [2]) was 0.1 to 1 µM.

`C[C@@H]1CN(c2ccc3nc(-c4cc5cn(C)nc5c(F)c4O)nc(C#N)c3c2)C[C@H](C)N1` [Compound 707, 6-[(3R,5S)-3,5-dimethylpiperazin-1-yl]-2-(7-fluoro-6-hydroxy-2-methylindazol-5-yl) quinazoline-4-carbonitrile] gave an IC50 (Target C [1]) of 0.1 to 1 µM, an IC50 (HTT) of 0.1 to 1 µM and an IC50 (Target C [2]) of 0.1 to 1 µM.
